Assays:
Format in all cases: in vivo
[1] = system: blackgrass (Alopecurus myosuroides); experiment: Test A postemergence; conditions: Alopecurus myosuroides, post-emergence, 240 h, Postemergence
Summary of the method: (§1)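 Greenhouse, ~10 d after spray; visual injury vs untreated controls, 0 = no effect, 100 = complete control. Preemergence: directed soil spray over planted seeds. Postemergence: plants 2–10 cm, 1–2 leaf stage. Loam/sand blend. Compound in non-phytotoxic solvent with surfactant.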

[2] = system: ryegrass, Italian (Italian ryegrass, Lolium multiflorum); experiment: Test A postemergence; conditions: Lolium multiflorum, post-emergence, 240 h, Postemergence
Summary of the method: as §1

[3] = system: wheat (Triticum aestivum); experiment: Test A postemergence; conditions: Triticum aestivum, post-emergence, 240 h, Postemergence
Summary of the method: as §1

[4] = system: giant foxtail (Setaria faberii); experiment: Test A postemergence; conditions: Setaria faberi, post-emergence, 240 h, Postemergence
Summary of the method: as §1

[5] = system: barnyardgrass (Echinochloa crus-galli); experiment: Test A postemergence; conditions: Echinochloa crus-galli, post-emergence, 240 h, Postemergence
Summary of the method: as §1

[6] = system: ragweed (common ragweed, Ambrosia elatior); experiment: Test A postemergence; conditions: Ambrosia artemisiifolia, post-emergence, 240 h, Postemergence
Summary of the method: as §1

[7] = system: Galium (catchweed bedstraw, Galium aparine); experiment: Test A postemergence; conditions: Galium, post-emergence, 240 h, Postemergence
Summary of the method: as §1

Kochia (Kochia scoparia) [8] = experiment: Test A postemergence; conditions: Bassia scoparia, post-emergence, 240 h, Postemergence
Summary of the method: as §1

corn (Zea mays) = experiment: Test A postemergence; conditions: Zea mays, post-emergence, 240 h, Postemergence
Summary of the method: as §1

[9] = system: pigweed (Amaranthus retroflexus); experiment: Test A postemergence; conditions: Amaranthus retroflexus, post-emergence, 240 h, Postemergence
Summary of the method: as §1

[10] = system: ryegrass, Italian (Italian ryegrass, Lolium multiflorum); experiment: Test A preemergence; conditions: Lolium multiflorum, pre-emergence, 240 h, preemergence, 0 to 100 scale where 0 is no effect and 100 is complete control, read-out: Ryegrass, Italian plant response rating
Summary of the method: as §1

[11] = system: giant foxtail (Setaria faberii); experiment: Test A preemergence; conditions: Setaria faberi, pre-emergence, 240 h, preemergence, 0 to 100 scale where 0 is no effect and 100 is complete control, read-out: Foxtail, Giant plant response rating
Summary of the method: as §1

[12] = system: ragweed (common ragweed, Ambrosia elatior); experiment: Test A preemergence; conditions: Ambrosia artemisiifolia, pre-emergence, 240 h, preemergence, 0 to 100 scale where 0 is no effect and 100 is complete control, read-out: Ragweed plant response rating
Summary of the method: as §1

Kochia (Kochia scoparia) [13] = experiment: Test A preemergence; conditions: Bassia scoparia, pre-emergence, 240 h, preemergence, 0 to 100 scale where 0 is no effect and 100 is complete control, read-out: Kochia plant response rating
Summary of the method: as §1

[14] = system: pigweed (Amaranthus retroflexus); experiment: Test A preemergence; conditions: Amaranthus retroflexus, pre-emergence, 240 h, preemergence, 0 to 100 scale where 0 is no effect and 100 is complete control, read-out: Pigweed plant response rating
[15] = 125 g ai/ha, visual injury rating, approximately 10 d

Work on `COc1cc([C@H]2CN(C)C(=O)[C@@H]2C(=O)Nc2cccc(F)c2F)ccc1F` [Compound 1299] yielded a pest or weed control at 125 g/ha ([1]; 125 g ai/ha, visual rating about 10 d after treatment, read-out: Blackgrass plant response rating (0 to 100 scale)) of 20%, a pest or weed control at 500 g/ha ([1]; 500 g ai/ha, visual injury, 0 to 100 scale (0 no effect, 100 complete control), approx. 10 d, read-out: Plant response rating, Blackgrass) of 60% and a pest or weed control at 125 g/ha ([2]; 125 g ai/ha, visual rating about 10 d after treatment, read-out: Ryegrass, Italian plant response rating (0 to 100 scale)) of 20%. It also gave a pest or weed control at 500 g/ha ([2]; 500 g ai/ha, visual injury, 0 to 100 scale (0 no effect, 100 complete control), approx. 10 d, read-out: Plant response rating, Ryegrass, Italian) of 60%, a plant injury at 125 g/ha ([3]; 125 g ai/ha, visual rating about 10 d after treatment, read-out: Wheat plant response rating (0 to 100 scale)) of 30% and a plant injury at 500 g/ha ([3]; 500 g ai/ha, visual injury, 0 to 100 scale (0 no effect, 100 complete control), approx. 10 d, read-out: Plant response rating, Wheat) of 40%. It also gave a pest or weed control at 125 g/ha ([4]; 125 g ai/ha, visual rating about 10 d after treatment, read-out: Foxtail, Giant plant response rating (0 to 100 scale)) of 90%, a pest or weed control at 500 g/ha ([4]; 500 g ai/ha, visual injury, 0 to 100 scale (0 no effect, 100 complete control), approx. 10 d, read-out: Plant response rating, Foxtail, Giant) of 90% and a pest or weed control at 125 g/ha ([5]; 125 g ai/ha, visual rating about 10 d after treatment, read-out: Barnyardgrass plant response rating (0 to 100 scale, 0 no effect, 100 complete control)) of 90%. It also gave a pest or weed control at 500 g/ha ([5]; 500 g ai/ha, visual injury, 0 to 100 scale (0 no effect, 100 complete control), approx. 10 d, read-out: Plant response rating, Barnyardgrass) of 90%, a pest or weed control at 125 g/ha ([6]; 125 g ai/ha, visual rating about 10 d after treatment, read-out: Ragweed plant response rating (0 to 100 scale)) of 0% and a pest or weed control at 500 g/ha ([6]; 500 g ai/ha, visual injury, 0 to 100 scale (0 no effect, 100 complete control), approx. 10 d, read-out: Plant response rating, Ragweed) of 20%. For the same compound, the pest or weed control at 125 g/ha ([7]; 125 g ai/ha, visual rating about 10 d after treatment, read-out: Galium plant response rating (0 to 100 scale)) was 40%, the pest or weed control at 500 g/ha ([7]; 500 g ai/ha, visual injury, 0 to 100 scale (0 no effect, 100 complete control), approx. 10 d, read-out: Plant response rating, Galium) was 50% and the pest or weed control at 125 g/ha (Kochia (Kochia scoparia) [8]; 125 g ai/ha, visual rating about 10 d after treatment, read-out: Kochia plant response rating (0 to 100 scale)) was 0%. For the same compound, the pest or weed control at 500 g/ha (Kochia (Kochia scoparia) [8]; 500 g ai/ha, visual injury, 0 to 100 scale (0 no effect, 100 complete control), approx. 10 d, read-out: Plant response rating, Kochia) was 60%, the plant injury at 125 g/ha (corn (Zea mays); 125 g ai/ha, visual rating about 10 d after treatment, read-out: Corn plant response rating (0 to 100 scale)) was 40% and the Corn plant response rating (crop injury, 0 = no effect, 100 = complete kill) at 500 g/ha (corn (Zea mays); 500 g ai/ha, visual injury, 0 to 100 scale (0 no effect, 100 complete control), approx. 10 d) was 80%. The pest or weed control at 125 g/ha ([9]; 125 g ai/ha, visual rating about 10 d after treatment, read-out: Pigweed plant response rating (0 to 100 scale)) was 0%, the pest or weed control at 500 g/ha ([9]; 500 g ai/ha, visual injury, 0 to 100 scale (0 no effect, 100 complete control), approx. 10 d, read-out: Plant response rating, Pigweed) was 0% and the pest or weed control at 125 g/ha [10, 15] was 30%. The pest or weed control at 500 g/ha ([10]; 500 g ai/ha) was 70%, the pest or weed control at 125 g/ha [11, 15] was 90% and the pest or weed control at 500 g/ha ([11]; 500 g ai/ha) was 90%. For the same compound, the pest or weed control at 125 g/ha [12, 15] was 30%, the pest or weed control at 500 g/ha ([12]; 500 g ai/ha) was 70% and the pest or weed control at 125 g/ha (Kochia (Kochia scoparia) [13]; [15]) was 70%. The pest or weed control at 500 g/ha (Kochia (Kochia scoparia) [13]; 500 g ai/ha) was 70%, the pest or weed control at 125 g/ha [14, 15] was 20% and the pest or weed control at 500 g/ha ([14]; 500 g ai/ha) was 60%.
